Assay [1] has as its system RUSH antibody release and furin processing, U2OS clone #7 cells. Briefly: Western blot of cell lysates and concentrated supernatants of clone #7. The assay is classed as cell-based, human. The conditions noted are these: 40 μM biotin, 4 h; FIG. 2C. An excerpt:
(§1) FIGS. 2A-2F show characterization of the anti-PD-L1 antibody RUSH system. […] Molecular mass standards (in kDa) are indicated on the left in panel FIG. 2D. The structures of the proteins detected by immunoblot are indicated based on the scheme shown in FIG. 1B and include antibody heavy and light chains, GFP, SBP, and a linker with a furin cleavage site. The truncated shape at the antibody C-terminus represents linker residues left after cleavage by furin. Results are representative of at least 3 independent experiments.
U2OS clone #7 cells were seeded in T-175 flasks and kept for 24 h at 37° C. in a humidified incubator with 5% CO2. […] At the end of the incubation time, cells were harvested and lysed in RIPA buffer (Thermo Fisher Scientific) supplemented with protease and phosphatase inhibitors (Roche, Basel, Switzerland). Additionally, cell culture supernatants were collected and concentrated ~100-fold in Amicon 50 kDa filter unit (Sigma) according to the manufacturer's instructions. Cell lysate and concentrated supernatant protein concentrations were determined using the BCA™ protein assay kit (Thermo Fisher Scientific). […] The membranes were then washed 3 times for 5 min with 0.01% Tween-20/TBS and peroxidase activity was evaluated with Amersham ECL Primer Western Blotting Detection Reagent (GE Healthcare, Little Chalfont, UK) on ImageQuant™ LAS4000 (GE Healthcare).

The test system of assay [2] is GFP-tagged RUSH antibody trafficking, U2OS clone #7 cells. Put plainly: Time lapse / fluorescence microscopy of GFP-tagged antibody trafficking in clone #7. The assay is classed as cell-based, human.
Excerpt: as §1
U2OS clone #7 cells were seeded in black 96-well imaging plates (Greiner bio one, Kremsmünster, Austria). After 24 h, the medium was removed, cells were rinsed with 37° C. pre-heated PBS and fixed in PBS supplemented with 4% paraformaldehyde (PFA, Sigma) and 1 μg/mL Hoechst (Life Technologies, Carlsbad, CA, USA) for 20 min under agitation at room temperature (RT). Cells were rinsed with PBS before addition of a 5% FBS/0.3% Triton X-100/PBS permeabilizing solution for 30 min under agitation at RT. Cells were rinsed with PBS and incubated overnight under agitation at 4° C. with the primary antibody in 1% BSA/PBS. Cells were washed with PBS and incubated for 45 min under agitation at RT with the secondary antibody in 1% BSA/PBS. Finally, cells were washed, and processed for image acquisition using an IXM XL BioImager (Molecular Devices, Sunnyvale, CA).

For assay [3], the system named is biotin-induced antibody release, U2OS clone #7 cells. Briefly: High-throughput RUSH screen: biotin-induced cytoplasmic GFP signal decay (antibody release), U2OS clone #7. The assay is classed as cell-based, human. On the procedure: FIGS. 4A-4C show the high-throughput screening of chemical compound libraries for the identification of modulators of protein secretion. […] U2OS clone #7 is plated in 384-well plates and incubated for 24 h before treatment with each compound of the Prestwick, ICCB Known Bioactives, or Autophagy Compound Library at 2 concentrations, low and high (with a 10-fold difference). […] The results of the Prestwick library screening at the low drug concentration are plotted. Brefeldin A was used as a positive control of the inhibition of secretion. The compounds causing a cytoplasmic GFP intensity below that observed for biotin-only treated cells are potential enhancers of protein secretion.
U2OS cells were transfected with the streptavidin-KDEL plasmid using Lipofectamine 2000 (Thermo Fisher Scientific) and selected in medium supplemented with G418 (400 μg/mL, Gibco-Invitrogen) for 2 weeks. Limiting dilution in 96-well plates was used for single cell isolation from the selected pool. Clones were amplified and selected based on streptavidin immunofluorescence. Clone #BD6 showing the highest streptavidin expression was further expanded in medium supplemented with G418 (200 μg/mL) and transfected with the anti-PD-L1 IgG RUSH plasmid using Lipofectamine 2000 and selected in medium supplemented with G418 (200 μg/mL) and hygromycin (100 μg/mL, Santa Cruz Biotechnology) for 2 weeks. Limiting dilution in 96-well plates was used for single cell isolation from clone #BD6-derived selected pool. Clones were amplified and selected based on GFP fluorescence and clone #7 was selected for further characterization and screening campaigns.
U2OS clone #7 cells were seeded in black 384-well imaging plates (Greiner bio one), 2,000 cells/well, and incubated for 24 h at 37° C. in a humidified incubator with 5% CO2. Cells were treated on the next day with the compounds from either the Prestwick library at […], the ICCB Known Bioactives library at 1/100^e or 1/1000^e, or the autophagy compound library at 10 μM or 1 μM for 4 h. […] Cells were then fixed as described above and processed for subsequent automated image acquisition using a robot-assisted IXM XL BioImager (Molecular Devices, Sunnyvale, CA, USA) equipped with a Sola light source (Lumencor, Beaverton, OR, USA), adapted excitation and emission filters (Semrock) a 16-bit monochrome sCMOS PCO.edge 5.5 camera (PCO, Kelheim, Germany). A 20× PlanAPO objective (Nikon, Tokyo, Japan) was used to acquire a minimum of 4 view fields in each well. The acquired images were processed using the open-access R software (https://www.r-project.org) with the help of freely available packages EBImage (available on the Bioconductor repository https://www.bioconductor.org), and RBioFormats (https://github.com/aoles/RBioFormats), and the custom packages MetaxpR (https://github.com/asauvat/MetaxpR) and MorphR (https://github.com/kroemerlab/MorphR). Nuclei were first detected using Hoechst 33342 signal and used as a marker to detect cytoplasmic areas based on GFP signal, allowing for the evaluation of cytoplasmic GFP intensity. Data were thereafter extracted and statistically evaluated using R (https://www.r-project.org). Data were normalized using negative and positive controls, reduced and transformed into a Z-score. The experiments were repeated manually at low scale with selected drugs to confirm their effects on secretion, in this second set of assays, U2OS clone #7 cells incubated with secretion inhibitors were fixed and stained with Hoechst as described above for imaging and viability determination based on cell counts.
We next sought to use clone #7 in screening campaigns for the identification of drugs capable of enhancing or inhibiting antibody secretion. […] Cell counting was facilitated by nuclear counterstaining with Hoechst 33324 in order to assess viability and distinguish drug effects on the secretion kinetics from direct cytotoxicity and select relevant drugs for further characterization. […]

The next assay deals with D3/D2 receptor. As to conditions: cited from earlier work.
In the next assay the test system is D1 receptors. As to conditions: cited from earlier work.
The next assay deals with CHO-K1 cells. Put plainly: Flow cytometry binding to PD-L1neg parental CHO cells. As to conditions: FACS. An excerpt:
(§2) FIGS. 3A-F show the characterization of the binding capacity of the anti-PD-L1 RUSH antibody released through the biotin-activated RUSH system (FIGS. 3A, 3C, and FIG. 3E) Schematic representation of the antibody binding to PD-L1^pos cells and detection by flow cytometry. […] Dark grey, binding to PD-L1^pos CHO cells (CHO-PDL1); light grey, binding to PD-L1^neg parental CHO cells (CHO-K1). Antibody binding is detected by means of an indirect immunofluorescence assay with a secondary anti-Fc APC conjugated or by direct measurement of GFP fluorescence.
(§3) Human osteosarcoma U2OS cells obtained from the Kroemer lab were maintained at 37° C. in a humidified incubator with 5% CO2 in Dulbecco's Modified Eagle Medium (DMEM) supplemented with 10% Fetal Bovine Serum (FBS), 1% penicillin-streptomycin and 1% HEPES (Gibco, Carlsbad, CA). CHO-K1 (CCL-61) cells were obtained from the ATCC and cultured at 37° C. in a humidified incubator with 5% CO2 in Nutrient Mixture F-12 Ham's (Sigma, Saint-Louis, MO) supplemented with 10% FBS and 2 mM L-Glutamine (Gibco). PD-L1-expressing CHO cells were cultured in similar conditions in medium supplemented with 7.5 μg/mL puromycin (Gibco). The Prestwick, the BML-2840 ICCB Known Bioactives and the Autophagy Compounds libraries were purchased from Prestwick Chemicals (Illkirch, France), Enzo Life Sciences (Farmingdale, NY), and TargetMol (Boston, MA), respectively. […]

The subject of assay [4] is human PD-L1 (CHO-PDL1 cells). Briefly: Flow cytometry binding to PD-L1-expressing CHO cells. As to conditions: FACS.
Excerpt: as §2, §3
A general note: A flow cytometer gives signals particle by particle.

Consider `O=C(O)CCCC[C@@H]1SC[C@@H]2NC(=O)N[C@@H]21` [biotin], for which the “Western blot signal intensity in cell lysate” value in assay [1] is “intensity of the signal was lower”. Also, in assay [2] (40 μM biotin), the “time of relocation of the GFP signal to the Golgi apparatus” value was in the range of 40 to 120 min and the “time to complete cytoplasmic GFP signal decay” value is on record as at most 4 h. The GFP/streptavidin co-localization entry in assay [2] (4 h after addition of biotin, FIG. 2B) is “lost 4 h after addition of biotin”. Moreover, the “Pearson's correlation coefficient (PCC), hook / GFP-tagged antibody colocalization” value in assay [2] (in the presence of biotin, 4 h, FIG. 2B) was found to be 0.29.

As to `CCCN(CCC)CCc1cccc2c1CC(=O)N2` [ropinirole, 4-[2-(dipropylamino)ethyl]-1,3-dihydroindol-2-one], the “secretion activator at both low and high concentration (consistently decreased fluorescent signal, among 20 best activators)” value in assay [3] (Prestwick library, low and high concentration, 4 h compound, then 40 μM biotin 1 h) is “fulfilled these criteria”. The “decrease of intracytoplasmic GFP fluorescence signal (biotin-stimulated RUSH system)” value in assay [3] (screening campaigns, summary) is “consistently decreased intracytoplasmic GFP fluorescence”. In the assay on D3/D2 receptor, the D3/D2 receptor agonism entry is “potent D3/D2 receptor agonist”. For the same molecule, in the assay with D1 receptors, the “affinity for D1 receptors” value is recorded as “no affinity”.

Consider “anti-PD-L1: reference anti-human PD-L1 antibody produced from published Atezolizumab heavy and light chains sequences”, for which the “binding to CHO-K1 cells” value in the assay on CHO-K1 cells was “not PD-L1^neg CHO (CHO-K1) cells”. Moreover, the “binding to CHO-PDL1 cells” value in assay [4] is on record as “binding to PD-L1^pos (CHO-PDL1)”.

Source of the values: US20260297508A1, “MODULATORS OF PROTEIN SECRETION” (SANOFI, priority 2023, published 2026).
